Values of other authors, collected in US20250143905A1, “TOPICAL TREATMENT FOR ANORECTAL DISORDERS WITH AND WITHOUT SEAT CUSHION” (priority 2019, published 2025).

Tested on: PPAR-γ
Settings: septic rats; pretreatment with curcumin for 3 days at 0.24 μmol/kg body weight; liver

COc1cc(/C=C/C(=O)CC(=O)/C=C/c2ccc(O)c(OC)c2)ccc1O [curcumin]
increase in PPAR-γ mRNA levels: 45%
increase in PPAR-γ protein levels: 65%
